From publication PMC6005845 (Frontiers in Cardiovascular Medicine, 2018)
Read-outs that look alike come from different tables or passages of the source.

Columns and labels:
[1] = tested on: APOE*3Leiden.CETP mice; assay: Blood pressure and heart rate (tail cuff); type: in vivo; settings: after 2 and 15 weeks of treatment, all dose groups, vs control
Text: (§1) Pouwer et al Supplementary material […]

[2] = tested on: AST; assay: Plasma AST (pooled samples); settings: after 16 weeks
[3] = tested on: APOE*3Leiden.CETP mice; assay: Histological assessment of atherosclerosis (lesion area, number, severity) in the aortic root; type: in vivo; settings: 16 weeks
Procedure: Significance of differences between the groups was calculated in SPSS 22.0 for Windows. Normally distributed data was tested parametrically using a one-way ANOVA for multiple comparisons with a Dunnett’s post-hoc test. Non-parametric data were compared separately with a Mann-Whitney U test with adjusted rejection criteria using a Bonferroni-Holm correction. Correlations between lesion size (after square root transformation) and cholesterol exposure were calculated with a Pearson’s correlation test. All groups were compared with the control group. Values are presented as means ± SD and p-values < 0.05 were considered statistically significant.
Pouwer et al Supplementary material
Dickinson, Franklin Lakes, New Jersey, USA). […]
Histological assessment of lung morphology and atherosclerosis […]
The caudal lung was cross […]
direction of the aortic arch. […]
valve leaflets and smooth muscle cells instead of collagen-rich tissue, serial cross sections (5 µm thick with intervals of 50 µm) were taken and mounted on AAS-coated slides. These sections were stained with hematoxylin-phloxine-saffron (HPS) for histological analysis. For each mouse, atherosclerosis was measured in 4 subsequent cross sections. Each section consisted of 3 segments. The average total lesion area per cross section was then calculated20
22. For determination of lesion severity the lesions were classified into five categories according to the American Heart Association classification 23: 0) no lesion I) early fatty streak, II) regular fatty streak, III) mild plaque, IV) moderate plaque, and V) severe plaque. The percentage of each lesion type was calculated, where type I-III lesions were classified as mild lesions and type IV-V lesions were classified as severe lesions 20 22. In the aortic root, lesion composition was determined for the severe lesions (type IV -V) as a percentage of lesion area after immunostaining with anti-human alpha-actin (1:400; PROGEN Biotechnik GmbH, Germany) for smooth muscle cells (SMC), and anti -mouse Mac-3 (1:50; BD Pharmingen, the Netherlands) for macrophages followed by Sirius Red staining. After Sirius Red staining for collagen, color intensity was determined in ImageJ and the used threshold was confirmed by evaluation of the sections under polarized light 24. Necrotic area and cholesterol clefts were measured after HPS staining13 20 22. Lesion stability index was calculated as described pre viously13 20. In each segment used for lesion quantification, the number of monocytes adhering to the endothelium were counted after immunostaining with AIA 31240 antibody (1:1000; Accurate Chemical and Scientific, New York, New York, USA) 14 20. […]

[4] = tested on: peripheral blood mononuclear cells; assay: Flow cytometric analysis (FACS) of PBMCs and monocyte subsets; settings: for CD11b+Ly6Chigh / CD11b+Ly6Clow / Number of live/single PBMCs per mL blood: after 12 weeks; for change of number of circulating PBMCs vs control: at 12 weeks
[5] = tested on: ALT; assay: Plasma ALT (pooled samples); settings: after 16 weeks
[6] = tested on: liver; assay: Liver gene expression analysis (RNA sequencing) and pathway analysis; type: in vivo, APOE*3Leiden.CETP mice; settings: vs control, Figure 7: imatinib 150, nilotinib 30, ponatinib 10 mg/kg
Procedure: To find early molecular signatures of other clinically relevant processes induced by the anti-CML drugs, gene expression and pathway analysis was performed in the liver as the central organ in lipid metabolism and synthesis of coagulation factors. To identify drug-specific molecular responses and overlap between the various treatments, the total number of differentially expressed genes (DEG) was assessed and a Venn-diagram was constructed comprising all DEG compared to control group. […]
Messenger RNA was isolated from liver of 8 mice per group, using the NEBNext Ultra RNA
sample Prep Kit. After fragmentation of the mRNA, cDNA synthesis was performed. The

[7] = tested on: MCP-1; assay: Plasma MCP-1 ELISA; type: in vivo, APOE*3Leiden.CETP mice; settings: for MCP-1: after 16 weeks of treatment; for change of MCP-1 relative to baseline (T = 0 weeks): p < 0.001
Text: as §1
(§2) The inflammatory markers SAA, E-selectin and MCP-
(§3) according to the manufacturer’s instruction. […]

[8] = Pharmacokinetic analysis and plasma drug concentrations (LC-MS/MS); type: in vivo, APOE*3Leiden.CETP mice; settings: APOE*3Leiden.CETP, mouse, plasma; for AUC(0-t): read-out: AUC0–24
Procedure: Animal experiments were approved by the Institutional Animal Care and Use Committee of The Netherlands Organization for Applied Research under registration number 3557.
PK analysis and plasma drug concentrations
EDTA plasma samples collected during the 24-hour PK study and at week 16 of the (cardio)vascular risk factor-atherosclerosis study were subsequently stored at -80°C until analysis. Thawed plasma samples (50μL) were de-proteinized with two volumes of acetonitrile containing an appropriate src-inhibitor chemotype as internal standard for each analyte.
Following deproteinization, a 5μL portion of clear supernatant was then subjected to solvent gradient separation in an Agilent 1100 series HPLC system interfaced to a Micromass triple-quadrupole mass spectrometer, which was operated in the positive ion electrospray MRM mode to obtain daughter ions for quantitation: Ion transitions used for quantitation were as follows: […]
curves ranging from 1 nM to 6 uM were fitted with a quadratic regression weighted by reciprocal concentration (1/x). LLOQ for the purposes of this assay was between 1 and 2 nM for all compounds analyzed. QC samples at three levels in the range of the standard curve were used to accept individual analytical sets, and all results were calculated as the mean of triplicate determinations ± standard error. Tmax, Cmax and AUCs were calculated using the software Berkeley Madonna (version 8.3.18). […]

[9] = tested on: SAA; assay: Plasma SAA ELISA; type: in vivo, APOE*3Leiden.CETP mice; settings: for SAA: after 16 weeks of treatment
Text: as §1, §2, §3

[10] = po, repeated dose, BID, 150 mg/kg, after 16 weeks
[11] = po, repeated dose, QD, 10 mg/kg, after 16 weeks
[12] = po, repeated dose, QD, 30 mg/kg, after 16 weeks
[13] = po, repeated dose, QD, 3 mg/kg, after 16 weeks

Cc1ccc(NC(=O)c2ccc(CN3CCN(C)CC3)cc2)cc1Nc1nccc(-c2cccnc2)n1 [Imatinib, imatinib]
effect on heart rate [1]: not affected | effect on systolic blood pressure (SBP) [1]: not affected | AST ([2]; 150 mg/kg BID): 147 U/L | change of total lesion area that consisted of severe (type IV–V) lesions vs control ([3]; 150 mg/kg BID, p < 0.001): −56% | reduction of atherosclerotic lesion area per cross-section vs control ([3]; 150 mg/kg BID, p < 0.001): 78% | CD11b+Ly6Chigh ([4]; 150 mg/kg BID): 11.0 ± 3.6 % of monocyte population | CD11b+Ly6Clow ([4]; 150 mg/kg BID): 69.1 ± 5.9 % of monocyte population | Number of live/single PBMCs per mL blood ([4]; 150 mg/kg BID): 3.9 ± 1.3 *106 /mL | change of number of circulating PBMCs vs control ([4]; 150 mg/kg BID, p = 0.006): −42% | ALT ([5]; 150 mg/kg BID): 31 U/L | gene expression of Protein C [6]: up-regulated | gene expression of Protein S [6]: down-regulated | gene expression of Serpina1 (PAI-1) [6]: up-regulated | gene expression of Tpa [6]: down-regulated | gene expression of Upa [6]: down-regulated | effect on plasma MCP-1 ([7]; 150 mg/kg BID, 16 weeks): None of the inflammatory markers were significantly altered | MCP-1 ([7]; 150 mg/kg BID): 54 ± 44 pg/mL | Cmax [8, 10]: 11100 ng/mL | Tmax [8, 10]: 2.47 h | AUC(0-t) [8, 10]: 78100 ng·h/mL | Cmax ([8]; single oral gavage, 100 mg/kg): 5290 ng/mL | Tmax ([8]; single oral gavage, 100 mg/kg): 2.28 h | AUC(0-t) ([8]; single oral gavage, 100 mg/kg): 32800 ng·h/mL | effect on plasma SAA ([9]; 150 mg/kg BID, 16 weeks): None of the inflammatory markers were significantly altered | SAA ([9]; 150 mg/kg BID): 9.6 ± 0.5 µg/mL

Cc1cn(-c2cc(NC(=O)c3ccc(C)c(Nc4nccc(-c5cccnc5)n4)c3)cc(C(F)(F)F)c2)cn1 [Nilotinib, nilotinib]
effect on heart rate [1]: not affected | effect on systolic blood pressure (SBP) [1]: not affected | AST ([2]; 10 mg/kg): 210 U/L | AST ([2]; 30 mg/kg): 221 U/L | effect on atherosclerotic lesion area ([3]; 10 and 30 mg/kg QD): not affected | CD11b+Ly6Chigh ([4]; 10 mg/kg): 27.5 ± 4.3 % of monocyte population | CD11b+Ly6Clow ([4]; 10 mg/kg): 61.4 ± 4.8 % of monocyte population | Number of live/single PBMCs per mL blood ([4]; 10 mg/kg): 6.5 ± 2.4 *106 /mL | CD11b+Ly6Chigh ([4]; 30 mg/kg): 11.4 ± 3.8 % of monocyte population | CD11b+Ly6Clow ([4]; 30 mg/kg): 73.2 ± 4.9 % of monocyte population | Number of live/single PBMCs per mL blood ([4]; 30 mg/kg): 6.4 ± 1.4 *106 /mL | ALT ([5]; 10 mg/kg): 64 U/L | ALT ([5]; 30 mg/kg): 81 U/L | gene expression of F5 [6]: down-regulation | gene expression of F9 [6]: down-regulation | gene expression of Protein S [6]: down-regulation | gene expression of Serpina1 (PAI-1) [6]: up-regulated | change of MCP-1 relative to baseline (T = 0 weeks) ([7]; 10 mg/kg QD, 16 weeks): +220% | MCP-1 ([7]; 10 mg/kg QD): 144 ± 82 pg/mL | change of MCP-1 relative to baseline (T = 0 weeks) ([7]; 30 mg/kg QD, 16 weeks): +160% | MCP-1 ([7]; 30 mg/kg QD): 117 ± 60 pg/mL | Cmax [8, 11]: 2300 ng/mL | Tmax [8, 11]: 3.17 h | AUC(0-t) [8, 11]: 24600 ng·h/mL | Cmax [8, 12]: 6890 ng/mL | Tmax [8, 12]: 3.17 h | AUC(0-t) [8, 12]: 73800 ng·h/mL | Cmax ([8]; single oral gavage, 50 mg/kg): 11000 ng/mL | Tmax ([8]; single oral gavage, 50 mg/kg): 3.26 h | AUC(0-t) ([8]; single oral gavage, 50 mg/kg): 117000 ng·h/mL | SAA ([9]; 10 mg/kg QD): 10.6 ± 1.0 µg/mL | SAA ([9]; 30 mg/kg QD): 10.6 ± 1.1 µg/mL

Cc1ccc(C(=O)Nc2ccc(CN3CCN(C)CC3)c(C(F)(F)F)c2)cc1C#Cc1cnc2cccnn12 [Ponatinib, ponatinib]
effect on heart rate [1]: not affected | effect on systolic blood pressure (SBP) [1]: not affected | AST ([2]; 3 mg/kg): 196 U/L | AST ([2]; 10 mg/kg): 207 U/L | reduction of atherosclerotic lesion area per cross-section vs control ([3]; 3 mg/kg QD, p = 0.002): 52% | change of lesion severity, mild lesions (type I-III) ([3]; 10 mg/kg QD, p < 0.01 (Figure 4B)): +64% | reduction of atherosclerotic lesion area per cross-section vs control ([3]; 10 mg/kg QD, p = 0.006): 48% | CD11b+Ly6Clow ([4]; 3 mg/kg): 58.4 ± 2.5 % of monocyte population | Number of live/single PBMCs per mL blood ([4]; 3 mg/kg): 7.1 ± 1.7 *106 /mL | change of number of circulating PBMCs vs control ([4]; 10 mg/kg QD (high-dose), p = 0.003): −44% | CD11b+Ly6Clow ([4]; 10 mg/kg): 69.1 ± 6.4 % of monocyte population | Number of live/single PBMCs per mL blood ([4]; 10 mg/kg): 3.8 ± 0.8 *106 /mL | ALT ([5]; 3 mg/kg): 44 U/L | ALT ([5]; 10 mg/kg): 31 U/L | gene expression of F7 [6]: increased | gene expression of Klkb1 [6]: increased | gene expression of Kng1a [6]: increased | gene expression of Tpa [6]: decreased | gene expression of Upa [6]: decreased | MCP-1 ([7]; 3 mg/kg QD): 78 ± 29 pg/mL | MCP-1 ([7]; 10 mg/kg QD): 92 ± 68 pg/mL | Cmax [8, 13]: 140 ng/mL | Tmax [8, 13]: 6.72 h | AUC(0-t) [8, 13]: 2430 ng·h/mL | Cmax [8, 11]: 460 ng/mL | Tmax [8, 11]: 6.73 h | AUC(0-t) [8, 11]: 8110 ng·h/mL | Cmax ([8]; single oral gavage, 5 mg/kg): 190 ng/mL | Tmax ([8]; single oral gavage, 5 mg/kg): 8 h | AUC(0-t) ([8]; single oral gavage, 5 mg/kg): 3240 ng·h/mL | SAA ([9]; 3 mg/kg QD): 10.4 ± 1.9 µg/mL | SAA ([9]; 10 mg/kg QD): 15.2 ± 21.1 µg/mL
